# From patent USRE48461E1, “Modulation of androgen receptor expression” (Ionis Pharmaceuticals, Inc., priority 2012, dated 2021)
# Oligonucleotides are written 5' to 3', each unit as a sugar letter and its base; * is a phosphorothioate linkage, no mark a phosphodiester; rarer units and linkages stand in square brackets, end groups in braces. Plain capitals give the bases only. k = constrained ethyl (cEt); d = 2'-deoxy (DNA)
# Tested on: AR mRNA
# Test: Dose-dependent antisense inhibition of human AR in HuVEC cells (electroporation, qRT-PCR RTS3559, IC50)
# Format: cell-based
# Summary of the method: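 HuVEC cells dosed with antisense oligonucleotides by electroporation and treated approximately 16 hours. AR mRNA quantified by real-time qPCR with primer probe set RTS3559 and normalised to total RNA by RIBOGREEN; IC50 from dose-response.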
# [1] = Table 29, HuVEC, electroporation, approximately 16 hours
# [2] = Table 30, HuVEC, electroporation, approximately 16 hours
# [3] = Table 31, HuVEC, electroporation, approximately 16 hours
# [4] = Table 32, HuVEC, electroporation, approximately 16 hours
# [5] = Table 33, HuVEC, electroporation, approximately 16 hours
# [6] = Table 34, HuVEC, electroporation, approximately 16 hours
# [7] = Table 35, HuVEC, electroporation, approximately 16 hours
# [8] = Table 36, HuVEC, electroporation, approximately 16 hours
substance,measurement,setting,value
549458 (kG*kT*kT*dG*dA*dT*dT*dT*dA*dA*dT*dG*dG*kT*kT*kG) [compound 549458],IC50,"HuVEC cells, electroporation",190 nM
same,inhibition of AR mRNA at 46.9 nM,"HuVEC cells, electroporation, 46.9 nM ASO",15%
same,inhibition of AR mRNA at 187.5 nM,"HuVEC cells, electroporation, 187.5 nM ASO",50%
same,inhibition of AR mRNA at 750.0 nM,"HuVEC cells, electroporation, 750.0 nM ASO",85%
same,inhibition of AR mRNA at 3000.0 nM,"HuVEC cells, electroporation, 3000.0 nM ASO",96%
same,IC50,"HuVEC, ~16 h, Table 4",57 nM
same,IC50,"HuVEC, ~16 h, Table 6",100 nM
same,IC50,"HuVEC, ~16 h, Table 8",100 nM
same,IC50,"HuVEC, ~16 h, Table 10",203 nM
same,IC50,"HuVEC, ~16 h, Table 11",324 nM
same,IC50,"HuVEC, ~16 h, Table 12",470 nM
same,IC50,"HuVEC, ~16 h, Table 14",196 nM
same,IC50,"HuVEC, ~16 h, Table 15",190 nM
same,"percent inhibition of AR, 46.9 nM",[1],21%
same,"percent inhibition of AR, 187.5 nM",[1],72%
same,"percent inhibition of AR, 750.0 nM",[1],91%
same,"percent inhibition of AR, 3000.0 nM",[1],97%
same,IC50,[1],110 nM
same,"percent inhibition of AR, 46.9 nM",[2],22%
same,"percent inhibition of AR, 187.5 nM",[2],62%
same,"percent inhibition of AR, 750.0 nM",[2],92%
same,"percent inhibition of AR, 3000.0 nM",[2],97%
same,IC50,[2],130 nM
same,"percent inhibition of AR, 46.9 nM",[3],24%
same,"percent inhibition of AR, 187.5 nM",[3],59%
same,"percent inhibition of AR, 750.0 nM",[3],92%
same,"percent inhibition of AR, 3000.0 nM",[3],98%
same,IC50,[3],130 nM
same,"percent inhibition of AR, 46.9 nM",[4],19%
same,"percent inhibition of AR, 187.5 nM",[4],58%
same,"percent inhibition of AR, 750.0 nM",[4],89%
same,"percent inhibition of AR, 3000.0 nM",[4],96%
same,IC50,[4],150 nM
same,"percent inhibition of AR, 46.9 nM",[5],21%
same,"percent inhibition of AR, 187.5 nM",[5],61%
same,"percent inhibition of AR, 750.0 nM",[5],90%
same,"percent inhibition of AR, 3000.0 nM",[5],96%
same,IC50,[5],130 nM
same,"percent inhibition of AR, 46.9 nM",[6],14%
same,"percent inhibition of AR, 187.5 nM",[6],53%
same,"percent inhibition of AR, 750.0 nM",[6],84%
same,"percent inhibition of AR, 3000.0 nM",[6],95%
same,IC50,[6],180 nM
same,"percent inhibition of AR, 46.9 nM",[7],13%
same,"percent inhibition of AR, 187.5 nM",[7],49%
same,"percent inhibition of AR, 750.0 nM",[7],84%
same,"percent inhibition of AR, 3000.0 nM",[7],91%
same,IC50,[7],190 nM
same,"percent inhibition of AR, 46.9 nM",[8],1%
same,"percent inhibition of AR, 187.5 nM",[8],51%
same,"percent inhibition of AR, 750.0 nM",[8],83%
same,"percent inhibition of AR, 3000.0 nM",[8],96%
same,IC50,[8],230 nM
